{"source": "ChEMBL document CHEMBL4007467", "about": "“Effects of 6-paradol, an unsaturated ketone from gingers, on cytochrome P450-mediated drug metabolism” (Bioorg Med Chem Lett, 2017)", "type_in_all_cases": "ADME", "key": {"[1]": {"target": "CYP2C9 (Homo sapiens, UniProt P11712)", "sequence (P11712 whole entry)": "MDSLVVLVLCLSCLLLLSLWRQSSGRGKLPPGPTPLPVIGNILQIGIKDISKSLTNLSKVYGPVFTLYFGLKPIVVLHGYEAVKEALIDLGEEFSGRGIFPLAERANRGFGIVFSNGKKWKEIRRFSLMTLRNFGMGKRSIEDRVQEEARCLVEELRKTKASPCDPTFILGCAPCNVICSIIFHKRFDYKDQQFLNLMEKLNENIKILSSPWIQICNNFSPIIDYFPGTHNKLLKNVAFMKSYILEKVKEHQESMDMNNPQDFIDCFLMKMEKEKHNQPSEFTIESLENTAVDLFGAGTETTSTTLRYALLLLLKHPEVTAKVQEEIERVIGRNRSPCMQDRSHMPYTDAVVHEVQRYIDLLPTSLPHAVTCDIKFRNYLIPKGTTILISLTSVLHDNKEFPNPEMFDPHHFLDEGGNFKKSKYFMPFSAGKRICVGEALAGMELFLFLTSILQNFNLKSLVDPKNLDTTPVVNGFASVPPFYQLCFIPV", "assay": "Inhibition of CYP2C9 in human liver microsomes assessed as enzyme-mediated metabolite formation at 30 uM using diclofenac as substrate incubated for 5 mins followed by NADPH addition measured after 30 mins by LC-MS/MS analysis relative to control", "parameters": "scale not given: the % may be the effect or the level left", "conditions": "probe diclofenac, read-out: Activity"}, "[2]": {"target": "T1, Cytochrome P450 2B6 (Homo sapiens, UniProt P20813)", "T1 sequence (P20813 whole entry)": "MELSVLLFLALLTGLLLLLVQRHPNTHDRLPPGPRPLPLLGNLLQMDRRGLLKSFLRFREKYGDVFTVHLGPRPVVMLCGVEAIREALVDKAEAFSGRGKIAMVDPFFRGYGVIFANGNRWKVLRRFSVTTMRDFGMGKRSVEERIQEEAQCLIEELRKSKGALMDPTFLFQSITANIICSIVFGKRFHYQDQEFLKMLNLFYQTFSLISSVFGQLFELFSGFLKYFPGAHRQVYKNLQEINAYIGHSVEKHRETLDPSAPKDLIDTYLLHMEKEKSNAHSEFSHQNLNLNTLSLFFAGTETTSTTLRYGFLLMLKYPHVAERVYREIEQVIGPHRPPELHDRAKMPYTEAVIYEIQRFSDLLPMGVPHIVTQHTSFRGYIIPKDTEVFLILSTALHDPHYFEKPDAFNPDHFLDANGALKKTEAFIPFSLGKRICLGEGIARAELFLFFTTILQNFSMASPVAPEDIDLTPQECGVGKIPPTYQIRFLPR", "assay": "Inhibition of human CYP2B6 using bupropion as substrate incubated for 5 mins followed by NADPH addition measured after 30 mins by LC-MS/MS analysis"}, "[3]": {"target": "T2, CYP3A4 (Homo sapiens, UniProt P08684)", "T2 sequence (P08684 whole entry)": "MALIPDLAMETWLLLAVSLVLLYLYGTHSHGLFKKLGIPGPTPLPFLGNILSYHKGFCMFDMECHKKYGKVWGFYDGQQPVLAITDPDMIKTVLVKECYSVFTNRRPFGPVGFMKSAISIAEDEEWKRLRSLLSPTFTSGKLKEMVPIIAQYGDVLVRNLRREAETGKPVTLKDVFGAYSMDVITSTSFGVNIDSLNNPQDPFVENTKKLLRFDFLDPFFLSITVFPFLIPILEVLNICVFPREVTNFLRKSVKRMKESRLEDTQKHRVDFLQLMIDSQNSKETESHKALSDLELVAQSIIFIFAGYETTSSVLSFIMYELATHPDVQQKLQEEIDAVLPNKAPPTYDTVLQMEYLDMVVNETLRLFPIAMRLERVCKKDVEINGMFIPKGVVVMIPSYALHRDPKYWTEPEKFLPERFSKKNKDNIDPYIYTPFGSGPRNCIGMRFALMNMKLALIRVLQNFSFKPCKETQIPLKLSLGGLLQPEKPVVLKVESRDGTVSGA", "assay": "Inhibition of CYP3A4 in human liver microsomes assessed as enzyme-mediated metabolite formation at 1 uM using midazolam as substrate preincubated for 20 mins followed by substrate addition measured after 30 mins in presence of NADPH by LC-MS/MS analysis relative to control", "parameters": "scale not given: the % may be the effect or the level left", "conditions": "probe midazolam, read-out: Activity"}, "[4]": {"target": "T2, CYP3A4", "assay": "Inhibition of CYP3A4 in human liver microsomes assessed as enzyme-mediated metabolite formation at 1 uM using midazolam as substrate incubated for 5 mins followed by NADPH addition measured after 30 mins by LC-MS/MS analysis relative to control", "parameters": "scale not given: the % may be the effect or the level left", "conditions": "probe midazolam, read-out: Activity"}, "[5]": {"target": "T3, CYP2C8 (Homo sapiens, UniProt P10632)", "T3 sequence (P10632 whole entry)": "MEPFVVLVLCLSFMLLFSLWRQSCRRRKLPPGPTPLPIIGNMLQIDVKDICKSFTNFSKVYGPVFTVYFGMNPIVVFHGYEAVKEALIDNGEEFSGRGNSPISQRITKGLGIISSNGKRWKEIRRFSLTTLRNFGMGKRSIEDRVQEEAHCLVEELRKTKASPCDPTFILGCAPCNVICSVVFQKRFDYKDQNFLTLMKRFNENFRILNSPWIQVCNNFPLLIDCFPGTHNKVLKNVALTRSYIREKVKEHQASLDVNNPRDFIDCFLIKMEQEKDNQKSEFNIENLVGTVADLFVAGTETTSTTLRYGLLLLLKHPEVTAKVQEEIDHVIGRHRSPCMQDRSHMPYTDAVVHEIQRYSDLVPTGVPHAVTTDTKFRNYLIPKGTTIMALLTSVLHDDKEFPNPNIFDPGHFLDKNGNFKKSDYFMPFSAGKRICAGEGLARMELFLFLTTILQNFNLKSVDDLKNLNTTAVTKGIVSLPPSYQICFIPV", "assay": "Inhibition of CYP2C8 in human liver microsomes assessed as enzyme-mediated metabolite formation at 1 uM using paclitaxel as substrate incubated for 5 mins followed by NADPH addition measured after 30 mins by LC-MS/MS analysis relative to control", "parameters": "scale not given: the % may be the effect or the level left", "conditions": "probe paclitaxel, read-out: Activity"}, "[6]": {"target": "T2, CYP3A4", "assay": "Inhibition of CYP3A4 in human liver microsomes assessed as enzyme-mediated metabolite formation at 30 uM using midazolam as substrate preincubated for 20 mins followed by substrate addition measured after 30 mins in presence of NADPH by LC-MS/MS analysis relative to control", "parameters": "scale not given: the % may be the effect or the level left", "conditions": "probe midazolam, read-out: Activity"}, "[7]": {"target": "T4, CYP1A2 (Homo sapiens, UniProt P05177)", "T4 sequence (P05177 whole entry)": "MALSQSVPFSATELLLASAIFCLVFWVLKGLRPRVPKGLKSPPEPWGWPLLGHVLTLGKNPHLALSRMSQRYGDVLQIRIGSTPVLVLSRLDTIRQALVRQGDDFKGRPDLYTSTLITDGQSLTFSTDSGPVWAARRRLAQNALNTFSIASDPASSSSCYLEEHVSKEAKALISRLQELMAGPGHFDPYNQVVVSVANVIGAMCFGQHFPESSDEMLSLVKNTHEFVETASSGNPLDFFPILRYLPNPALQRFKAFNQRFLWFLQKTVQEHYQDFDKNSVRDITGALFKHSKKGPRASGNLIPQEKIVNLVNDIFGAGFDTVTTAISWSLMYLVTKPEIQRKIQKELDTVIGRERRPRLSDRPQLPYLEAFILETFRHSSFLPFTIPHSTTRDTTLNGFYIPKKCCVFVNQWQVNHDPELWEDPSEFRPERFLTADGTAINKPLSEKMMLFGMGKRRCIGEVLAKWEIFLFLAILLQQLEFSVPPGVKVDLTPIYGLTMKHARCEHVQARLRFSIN", "assay": "Inhibition of CYP1A2 in human liver microsomes assessed as enzyme-mediated metabolite formation at 1 uM using phenacetin as substrate incubated for 5 mins followed by NADPH addition measured after 30 mins by LC-MS/MS analysis relative to control", "parameters": "scale not given: the % may be the effect or the level left", "conditions": "probe phenacetin, read-out: Activity"}, "[8]": {"target": "T4, CYP1A2", "assay": "Inhibition of CYP1A2 in human liver microsomes assessed as enzyme-mediated metabolite formation at 30 uM using phenacetin as substrate incubated for 5 mins followed by NADPH addition measured after 30 mins by LC-MS/MS analysis relative to control", "parameters": "scale not given: the % may be the effect or the level left", "conditions": "probe phenacetin, read-out: Activity"}, "[9]": {"target": "T5, CYP2A6 (Homo sapiens, UniProt P11509)", "T5 sequence (P11509 whole entry)": "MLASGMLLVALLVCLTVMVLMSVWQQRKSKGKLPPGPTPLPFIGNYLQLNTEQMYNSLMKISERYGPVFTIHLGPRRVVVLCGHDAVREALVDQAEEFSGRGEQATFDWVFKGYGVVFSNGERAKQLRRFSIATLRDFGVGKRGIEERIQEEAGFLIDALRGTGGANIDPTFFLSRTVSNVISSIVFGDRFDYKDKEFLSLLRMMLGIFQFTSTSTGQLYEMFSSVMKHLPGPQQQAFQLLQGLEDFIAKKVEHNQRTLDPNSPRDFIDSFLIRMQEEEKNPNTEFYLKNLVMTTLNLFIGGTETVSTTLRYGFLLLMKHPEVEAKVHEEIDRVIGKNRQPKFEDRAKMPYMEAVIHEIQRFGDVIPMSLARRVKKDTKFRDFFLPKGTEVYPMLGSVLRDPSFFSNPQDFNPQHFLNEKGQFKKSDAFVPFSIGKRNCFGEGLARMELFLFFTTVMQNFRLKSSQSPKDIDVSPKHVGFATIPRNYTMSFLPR", "assay": "Inhibition of CYP2A6 in human liver microsomes assessed as enzyme-mediated metabolite formation at 0.3 uM using coumarin as substrate preincubated for 20 mins followed by substrate addition measured after 30 mins in presence of NADPH by LC-MS/MS analysis relative to control", "parameters": "scale not given: the % may be the effect or the level left", "conditions": "probe coumarin, read-out: Activity"}}, "data": [{"compound": "CCCCCCCC(=O)CCc1ccc(O)c(OC)c1", "values": [{"measurement": "activity at 0.5 h, 30 µM", "setting": "[1]", "result": 30.9, "unit": "%"}, {"measurement": "IC50", "setting": "[2]", "result": 6.2, "unit": "µM"}, {"measurement": "inhibition (INH)", "setting": "[2]; human, 0.5 h", "result": "Dose-dependent effect"}, {"measurement": "activity at 0.5 h, 1 µM", "setting": "[3]", "result": 91.5, "unit": "%"}, {"measurement": "activity at 0.5 h, 1 µM", "setting": "[4]", "result": 88.5, "unit": "%"}, {"measurement": "activity at 0.5 h, 1 µM", "setting": "[5]", "result": 68.7, "unit": "%"}, {"measurement": "activity at 0.5 h, 30 µM", "setting": "[6]", "result": 97.6, "unit": "%"}, {"measurement": "activity at 0.5 h, 1 µM", "setting": "[7]", "result": 79.2, "unit": "%"}, {"measurement": "activity at 0.5 h, 30 µM", "setting": "[8]", "result": 35.5, "unit": "%"}, {"measurement": "activity at 0.5 h, 0.3 µM", "setting": "[9]", "result": 103, "unit": "%"}]}]}
